# From patent US20170252442A1, “PHOTOHEXER COMPOUNDS AND PHARMACEUTICAL COMPOSITION AND USE THEREOF” (RAINBOW PHARMATECH LLC, priority 2014, published 2017)
# Tests used:
# [1] = tested on: 4T1 transplanted tumors; experiment: Tumor-inhibition effect of P1 and P2-PDT on 4T1 xenografted mice; format: in vivo, Balb/c mice; conditions: for tumor inhibition rate: day 22 after treatment
# Experimental: Experimental groups: blank control (2 mice), P-1 alone treatment (4 mg/kg, 8 mice), P-2 alone treatment (2 mg/kg, 8 mice), P-1 treatment (2 mg/kg, 4 mg/kg, 8 mice/group) combined with light irradiations, P-2 treatment (1 mg/kg, 2 mg/kg, 4 mg/kg, 8 mice/group) combined with light irradiations, 66 Balb/c mice in total.
# [2] = tested on: MCF-7 cells; experiment: MTT assay, photodynamic therapy on MCF-7 cells; format: cell-based, human
# From the text: (§1) The cells in logarithmic growth phase were collected and inoculated on 24-well culture plates. When reaching 70%-80% confluence, cells were divided randomly into the following groups: control (the parallel control group without photosensitizer and irradiation), irradiation (irradiation treatment alone without photosensitizer); (photosensitizer treatment alone without irradiation), photodynamic treatment (treatment by photosensitizer in combination with irradiation). For the photosensitizer alone treatment group and photodynamic treatment group, an appropriate amount of Photohexer-1 (P-1) or Photohexer-2 (P-2) was respectively added away from light to give a final concentration of 0.8, 1.6, 3.2, 6.4 μM. Each group set 3 replicates. Cells were incubated with the active agent, different treatments were carried out according to the grouping. […] After treatment and digestion of each group of cells, it was inoculated into a 96-well plate at 100 μL/well, and four wells were set for each treatment. MTT assay was performed after 24 h from inoculation: 20 μL MTT solution was added to each well under the condition away from light, and the culture was continued for 4 hours. 150 μL DMSO was added to each well after discarding the supernatant. After 15 min of dissolution, the absorbance value (OD value) was measured using a microplate reader and the relative survival rate of cells was calculated according to the following formula: […]
# [3] = tested on: 7721 cells; experiment: MTT assay, photodynamic therapy on 7721 cells; format: cell-based, human
# From the text: as §1
# [4] = tested on: Caco2 cells; experiment: MTT assay, photodynamic therapy on Caco2 cells; format: cell-based, human
# From the text: as §1
# [5] = tested on: MDA-MB-231 cells; experiment: MTT assay, photodynamic therapy on MDA-MB-231 cells; format: cell-based, human
# From the text: as §1
# [6] = tested on: MCF-7/ADR cells; experiment: MTT assay, photodynamic therapy on MCF-7/ADR cells; format: cell-based, human
# From the text: as §1
# [7] = Storage stability determination; format: physicochemical; conditions: 3 months of storage in dark at 2-4
# Experimental: The storage stability of Photohexer-1 and Photohexer-2 was determined by conventional methods in the art.
# [8] = tested on: SW-480 cells; experiment: MTT assay, photodynamic therapy on SW-480 cells; format: cell-based, human
# From the text: as §1
# [9] = tested on: SW-620 cells; experiment: MTT assay, photodynamic therapy on SW-620 cells; format: cell-based, human
# From the text: as §1
# [10] = 0.8 μM alone treatment, without irradiation
# [11] = 0.8 μM combined with 2.6 J/cm^2 light irradiation
# [12] = 0.8 μM combined with 5.2 J/cm^2 light irradiation
# [13] = 0.8 μM combined with 10.4 J/cm^2 light irradiation
# [14] = 1.6 μM alone treatment, without irradiation
# [15] = 1.6 μM combined with 2.6 J/cm^2 light irradiation
# [16] = 1.6 μM combined with 5.2 J/cm^2 light irradiation
# [17] = 1.6 μM combined with 10.4 J/cm^2 light irradiation
# [18] = 3.2 μM alone treatment, without irradiation
# [19] = 3.2 μM combined with 2.6 J/cm^2 light irradiation
# [20] = 3.2 μM combined with 5.2 J/cm^2 light irradiation
# [21] = 3.2 μM combined with 10.4 J/cm^2 light irradiation
# [22] = 6.4 μM alone treatment, without irradiation
# [23] = 6.4 μM combined with 2.6 J/cm^2 light irradiation
# [24] = 6.4 μM combined with 5.2 J/cm^2 light irradiation
# [25] = 6.4 μM combined with 10.4 J/cm^2 light irradiation
structure (smiles),measurement,setting,value
"C=Cc1c(C)c2cc3nc(cc4[nH]c(cc5nc(cc1[nH]2)C(C)=C5C(C)OCCCCCC)c(C)c4CCC(=O)[O-])C(CCC(=O)[O-])=C3C.[Na+].[Na+] (stereo not shown) [Photohexer P-2, 4-(1-hexyloxyethyl)-6,7-bis(propionatesodium)-1,3,5,8-tetramethyl-2-vinylporphyrin]",toxic effects of photosensitizer alone,"[1]; 2 mg/kg alone, without irradiation, 4T1 tumor-bearing mice",did not show significant toxic effects
same,tumor inhibition rate,"[1]; 2 mg/kg combined with light irradiation (50 J/cm^2), 4T1 tumor-bearing mice",23.35%
same,tumor inhibition rate,"[1]; 4 mg/kg combined with light irradiation (50 J/cm^2), 4T1 tumor-bearing mice",44.68%
same,photosensitizer activity on growth of 4T1 transplanted tumors,[1]; combined with 50 J/cm^2 irradiation,obvious dose-dependent activity
same,volume of tumor relative to control group,"[1]; combined with 50 J/cm^2 irradiation, 8th to 22nd days after treatment",about half the size of tumors of control group
same,Cell survival rate,[2]; [10],98.46 ± 4.62%
same,Cell survival rate,[2]; [11],89.08 ± 3.99%
same,Cell survival rate,[2]; [12],76.83 ± 4.26%
same,Cell survival rate,[2]; [13],72.40 ± 4.14%
same,Cell survival rate,[2]; [14],84.93 ± 3.16%
same,Cell survival rate,[2]; [15],65.11 ± 2.73%
same,Cell survival rate,[2]; [16],48.15 ± 3.12%
same,Cell survival rate,[2]; [17],41.81 ± 3.77%
same,Cell survival rate,[2]; [18],82.94 ± 2.28%
same,Cell survival rate,[2]; [19],51.79 ± 2.10%
same,Cell survival rate,[2]; [20],44.80 ± 2.22%
same,Cell survival rate,[2]; [21],34.81 ± 2.43%
same,Cell survival rate,[2]; [22],80.23 ± 1.03%
same,Cell survival rate,[2]; [23],40.31 ± 1.02%
same,Cell survival rate,[2]; [24],35.46 ± 1.02%
same,Cell survival rate,[2]; [25],26.14 ± 1.07%
same,Cell survival rate,[3]; [10],102.15 ± 4.07%
same,Cell survival rate,[3]; [11],98.29 ± 4.01%
same,Cell survival rate,[3]; [12],96.77 ± 3.76%
same,Cell survival rate,[3]; [13],95.91 ± 3.95%
same,Cell survival rate,[3]; [14],101.37 ± 3.36%
same,Cell survival rate,[3]; [15],94.78 ± 3.88%
same,Cell survival rate,[3]; [16],92.15 ± 3.64%
same,Cell survival rate,[3]; [17],91.44 ± 3.73%
same,Cell survival rate,[3]; [18],100.64 ± 2.98%
same,Cell survival rate,[3]; [19],92.15 ± 3.76%
same,Cell survival rate,[3]; [20],89.23 ± 3.35%
same,Cell survival rate,[3]; [21],78.32 ± 3.19%
same,Cell survival rate,[3]; [22],98.14 ± 2.53%
same,Cell survival rate,[3]; [23],88.02 ± 3.59%
same,Cell survival rate,[3]; [24],82.25 ± 2.79%
same,Cell survival rate,[3]; [25],71.15 ± 2.91%
same,toxicity alone,"[3]; alone, without irradiation",no significant toxicity
same,cell toxicity with light,[3]; combination with a certain amount of light,stronger cell toxicity
same,Cell survival rate,[4]; [10],99.09 ± 4.27%
same,Cell survival rate,[4]; [11],98.47 ± 3.69%
same,Cell survival rate,[4]; [12],98.57 ± 4.26%
same,Cell survival rate,[4]; [13],73.07 ± 3.86%
same,Cell survival rate,[4]; [14],98.50 ± 3.63%
same,Cell survival rate,[4]; [15],88.31 ± 2.67%
same,Cell survival rate,[4]; [16],77.26 ± 3.66%
same,Cell survival rate,[4]; [17],58.33 ± 2.60%
same,Cell survival rate,[4]; [18],94.12 ± 2.54%
same,Cell survival rate,[4]; [19],75.55 ± 2.01%
same,Cell survival rate,[4]; [20],63.08 ± 2.35%
same,Cell survival rate,[4]; [21],47.94 ± 2.31%
same,Cell survival rate,[4]; [22],88.45 ± 1.44%
same,Cell survival rate,[4]; [23],64.87 ± 1.13%
same,Cell survival rate,[4]; [24],43.88 ± 1.14%
same,Cell survival rate,[4]; [25],37.06 ± 1.54%
same,killing effect of photodynamic therapy,[4]; dependent on concentration and light intensity,good killing effect
same,sensitivity compared between P-1 and P-2,[5],more sensitive than P-1
same,Cell survival rate,[5]; [10],100.17 ± 4.03%
same,Cell survival rate,[5]; [11],87.82 ± 4.09%
same,Cell survival rate,[5]; [12],71.8 ± 4.16%
same,Cell survival rate,[5]; [13],52.23 ± 4.16%
same,Cell survival rate,[5]; [14],97.69 ± 3.63%
same,Cell survival rate,[5]; [15],73.80 ± 3.22%
same,Cell survival rate,[5]; [16],49.35 ± 3.46%
same,Cell survival rate,[5]; [17],45.69 ± 3.16%
same,Cell survival rate,[5]; [18],91.44 ± 2.57%
same,Cell survival rate,[5]; [19],59.92 ± 2.94%
same,Cell survival rate,[5]; [20],46.57 ± 2.43%
same,Cell survival rate,[5]; [21],40.31 ± 2.28%
same,Cell survival rate,[5]; [22],81.55 ± 1.21%
same,Cell survival rate,[5]; [23],49.18 ± 1.33%
same,Cell survival rate,[5]; [24],40.03 ± 1.12%
same,Cell survival rate,[5]; [25],31.15 ± 0.96%
same,cell toxicity,[6],significant cell toxicity
same,Cell survival rate,[6]; [10],96.93 ± 4.47%
same,Cell survival rate,[6]; [11],94.88 ± 3.94%
same,Cell survival rate,[6]; [12],92.76 ± 4.32%
same,Cell survival rate,[6]; [13],90.99 ± 4.36%
same,Cell survival rate,[6]; [14],92.26 ± 3.26%
same,Cell survival rate,[6]; [15],74.79 ± 2.77%
same,Cell survival rate,[6]; [16],67.82 ± 3.12%
same,Cell survival rate,[6]; [17],54.66 ± 3.43%
same,Cell survival rate,[6]; [18],53.84 ± 2.58%
same,Cell survival rate,[6]; [19],50.37 ± 2.13%
same,Cell survival rate,[6]; [20],48.99 ± 2.16%
same,Cell survival rate,[6]; [21],46.57 ± 2.76%
same,Cell survival rate,[6]; [22],48.88 ± 1.13%
same,Cell survival rate,[6]; [23],43.68 ± 1.06%
same,Cell survival rate,[6]; [24],41.49 ± 0.96%
same,Cell survival rate,[6]; [25],34.75 ± 1.22%
same,storage stability (content change by HPLC test),[7],no content change
same,photodynamic activity compared between P-1 and P-2,[8],better activity than P-1
same,Cell survival rate,[8]; [10],101.79 ± 4.08%
same,Cell survival rate,[8]; [11],100.79 ± 3.76%
same,Cell survival rate,[8]; [12],96.70 ± 3.63%
same,Cell survival rate,[8]; [13],94.70 ± 4.16%
same,Cell survival rate,[8]; [14],96.97 ± 4.27%
same,Cell survival rate,[8]; [15],91.72 ± 2.89%
same,Cell survival rate,[8]; [16],87.06 ± 2.51%
same,Cell survival rate,[8]; [17],75.11 ± 3.24%
same,Cell survival rate,[8]; [18],68.15 ± 2.78%
same,Cell survival rate,[8]; [19],63.40 ± 2.24%
same,Cell survival rate,[8]; [20],53.01 ± 1.99%
same,Cell survival rate,[8]; [21],43.68 ± 2.54%
same,Cell survival rate,[8]; [22],57.31 ± 2.33%
same,Cell survival rate,[8]; [23],45.36 ± 1.22%
same,Cell survival rate,[8]; [24],42.56 ± 1.06%
same,Cell survival rate,[8]; [25],27.83 ± 1.13%
same,Cell survival rate,[9]; [10],101.79 ± 4.27%
same,Cell survival rate,[9]; [11],97.58 ± 3.86%
same,Cell survival rate,[9]; [12],96.11 ± 4.06%
same,Cell survival rate,[9]; [13],92.99 ± 3.86%
same,Cell survival rate,[9]; [14],96.58 ± 3.66%
same,Cell survival rate,[9]; [15],94.77 ± 2.99%
same,Cell survival rate,[9]; [16],90.19 ± 3.18%
same,Cell survival rate,[9]; [17],84.95 ± 3.02%
same,Cell survival rate,[9]; [18],93.16 ± 2.71%
same,Cell survival rate,[9]; [19],89.07 ± 2.34%
same,Cell survival rate,[9]; [20],82.00 ± 2.62%
same,Cell survival rate,[9]; [21],68.54 ± 2.77%
same,Cell survival rate,[9]; [22],85.21 ± 1.03%
same,Cell survival rate,[9]; [23],66.83 ± 1.12%
same,Cell survival rate,[9]; [24],58.46 ± 1.23%
same,Cell survival rate,[9]; [25],47.12 ± 1.04%
